Read-outs that look alike come from different tables or passages of the source.

Series [1] concerns the target T1, human glucocorticoid receptor protein (GR) (Homo sapiens, UniProt P04150).
T1 construct: made in house; host or cells: Spodoptera frugiperda Sf21 insect cells (baculovirus)
T1 sequence (P04150 1-777): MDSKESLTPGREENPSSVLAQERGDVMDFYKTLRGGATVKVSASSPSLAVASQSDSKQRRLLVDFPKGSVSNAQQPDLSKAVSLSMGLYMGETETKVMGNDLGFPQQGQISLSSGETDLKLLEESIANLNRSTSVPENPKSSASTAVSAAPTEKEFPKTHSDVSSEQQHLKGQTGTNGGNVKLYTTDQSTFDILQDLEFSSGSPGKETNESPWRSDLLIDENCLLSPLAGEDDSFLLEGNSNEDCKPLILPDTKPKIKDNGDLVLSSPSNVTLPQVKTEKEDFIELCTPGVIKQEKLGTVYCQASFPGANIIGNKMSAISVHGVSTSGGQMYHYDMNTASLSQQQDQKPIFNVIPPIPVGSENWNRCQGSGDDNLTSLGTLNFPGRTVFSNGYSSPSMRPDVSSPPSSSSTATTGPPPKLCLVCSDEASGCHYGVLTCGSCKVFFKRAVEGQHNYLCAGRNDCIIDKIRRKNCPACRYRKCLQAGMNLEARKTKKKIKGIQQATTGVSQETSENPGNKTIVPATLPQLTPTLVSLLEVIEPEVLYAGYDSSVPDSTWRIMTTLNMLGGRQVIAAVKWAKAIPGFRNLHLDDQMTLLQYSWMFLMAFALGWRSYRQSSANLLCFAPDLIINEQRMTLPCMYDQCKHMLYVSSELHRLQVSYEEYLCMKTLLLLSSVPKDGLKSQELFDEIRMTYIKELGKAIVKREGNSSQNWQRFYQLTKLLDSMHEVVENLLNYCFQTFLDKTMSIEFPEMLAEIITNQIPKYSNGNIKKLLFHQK
The series is described as follows: Glucocorticoid receptor binding assay ([3H]dexamethasone competition, GR lysate). On the procedure:
A baculovirus expression plasmid containing cDNA encoding the human glucocorticoid receptor protein (GR) was prepared using standard techniques. […] That expression plasmid was co-transfected together with wild type Autographa californica multiple nuclear polyhedrosis virus DNA into Spodopter frugiperda-21 (Sf-21) cells to generate recombinant virus containing GR cDNA. See e.g., O'Reilly, D. R., Miller, L. K., Luckow, V. A., Regulation of expression of a baculovirus ecdysteroid UDP glucosyltransferase gene. […] That recombinant virus containing GR cDNA was collected.
A suspension culture of uninfected Sf21 cells was grown to a density of 1.2×10^6 cells/ml and then infected with the recombinant virus containing GR cDNA at a multiplicity of infection of 2. Those infected Sf21 cells were incubated for 48 hours and then collected by centrifugation at 1000×g for 10 minutes at 4° C. The resulting cell pellets were resuspended in lysis buffer (50 mM Potassium Phosphate buffer, pH 7.0, 10 mM Monothioglycerol, 5 mM DTT, 20 mM Sodium Molybdate, 1 mM PMSF, 1 μg/mL aprotinin, and 10 μg/mL leupeptin) and incubated for 15 minutes on ice. Those resuspended cell pellets were homogenized using a Dounce homogenizer and a B pestle. A volume of 2 M KCl was added to the homogenized cell pellets to a final concentration of 0.4 M. The resulting GR lysates were centrifuged at 100,000×g for 60 min at 4° C. and stored for use in binding assays.
Binding assay samples were prepared in separate mini-tubes in a 96-well format at 4° C. Each binding assay sample was prepared in a volume of 250 μL of Assay Buffer (10% glycerol, 25 mM sodium phosphate, 10 mM potassium fluoride, 10 mM sodium molybdate, 0.25 mM CHAPS, 2 mM DTT and 1 mM EDTA, (adjusted to pH 7.5)) containing 50 μg of GR lysate; 2-4 nM of [^3H]dexamethasone at 84 Ci/mmol; and either a reference compound or a test compound. […] Each reference compound and test compound was assayed at varying concentrations, ranging from 0 to 10^−5 M. Each concentration of each reference compound and each test compound was assayed in triplicate. The assay samples were incubated for 16 hours at 4° C.
The assay samples were then centrifuged and the supernatants were discarded. The resulting pellets were washed twice with assay buffer lacking DTT. Radioactivity in counts per minute (CPM) of each washed pellet was determined by liquid scintillation counter (MicroBeta™, Wallach).
Specific binding for a particular sample was calculated using the equation: (Sample CPM)−(Average Non-specific CPM)
Average Non-specific CPM was defined as the amount of radioactivity from samples containing an excess (i.e. 1000 nM) of unlabeled dexamethasone. […] Ki values were determined using the Cheng-Prusoff equation using a previously determined Kd value for dexamethasone: Ki=IC50/(1+[L]/Kd)
[L]=concentration of labeled dexamethasone
Kd=dissociation constant of labeled dexamethasone

Where [2] appears, read: competition with 2-4 nM [3H]dexamethasone, 16 hours at 4° C., Cheng-Prusoff, read-out: Ki.

Molecule `COc1c(O)ccc2c1-c1ccc3c(c1/C(=C/c1sccc1C(C)=O)O2)C(C)=CC(C)(C)N3` returned a melting point of 222 to 224 °C.
In the case of `COCc1ccsc1/C=C1\Oc2ccc(O)c(OC)c2-c2ccc3c(c21)C(C)=CC(C)(C)N3` [Compound 193, (Z)-5-(2′-(3′-Methoxymethylthienylmethylidene))1,2-dihydro-9-hydroxy-10-methoxy-2,2,4-trimethyl-5H-chromeno[3,4-f]quinoline], in series [1] (setting [2]), the Ki was in the range of 1 to 2 nM.
As to `COc1c(O)ccc2c1-c1ccc3c(c1/C(=C/c1sccc1C(=O)c1ccsc1)O2)C(C)=CC(C)(C)N3` [Compound 215, (Z)-5-(2′-(3′-(Thien-3″-ylcarbonyl)thienylmethylidene))1,2-dihydro-9-hydroxy-10-methoxy-2,2,4-trimethyl-5H-chromeno[3,4-f]quinoline], the Ki in series [1] (setting [2]) was 1 to 2 nM.
Still for that read-out and setting: the same measure for `COc1c(O)ccc2c1-c1ccc3c(c1/C(=C/c1sccc1CNC1CC1)O2)C(C)=CC(C)(C)N3` [Compound 222, (Z)-5-(2′-(3′-(Cyclopropylaminomethyl)thienylmethylidene))1,2-dihydro-9-hydroxy-10-methoxy-2,2,4-trimethyl-5H-chromeno[3,4-f]quinoline]: 2 to 3 nM.
In the case of `CC#CCOCc1ccsc1/C=C1\Oc2ccc(O)c(OC)c2-c2ccc3c(c21)C(C)=CC(C)(C)N3` [Compound 237, (Z)-5-(2′-(3′-(But-2″-ynloxymethyl)thienylmethylidene))1,2-dihydro-9-hydroxy-10-methoxy-2,2,4-trimethyl-5H-chromeno[3,4-f]quinoline], the Ki in series [1] (setting [2]) lay in the range of 1 to 2 nM.
Turning to `CCNC(=O)c1ccsc1/C=C1\Oc2ccc(O)c(OC)c2-c2ccc3c(c21)C(C)=CC(C)(C)N3` [Compound 249, (Z)-5-(2′-(3′-Ethylcarbamoylthienylmethylidene))1,2-dihydro-9-hydroxy-10-methoxy-2,2,4-trimethyl-5H-chromeno[3,4-f]quinoline], the inhibitory constant (Ki) in series [1] (setting [2]) is 1 to 2 nM.
With `COc1c(O)ccc2c1-c1ccc3c(c1/C(=C/c1sccc1C(=O)N1CCC(=O)CC1)O2)C(C)=CC(C)(C)N3` [Compound 252, (Z)-5-(2′-(3′-(4″-Oxo-piperidinecarbonyl)thienylmethylidene))1,2-dihydro-9-hydroxy-10-methoxy-2,2,4-trimethyl-5H-chromeno[3,4-f]quinoline], the Ki in series [1] fell in the range of 1 to 2 nM.

Broadly, the melting point is the temperature, or range, at which the solid turns liquid. For orientation: Ki means a measure of affinity in units of concentration, obtained from inhibition or displacement.
